Measured values published in article PMC6476959, “Novel 3,4-Dihydroisocoumarins Inhibit Human P-gp and BCRP in Multidrug Resistant Tumors and Demonstrate Substrate Inhibition of Yeast Pdr5” (Frontiers in Pharmacology, 2019).
Entries after “also recorded” stand apart in the source; their conditions may differ.

Key:
A549 cells = assay: CellTiter-Glo cell viability assay (cytotoxicity), A549; assay type: cell-based, human; details: for IC50: Homo sapiens, A549, 48 h, mean ± SEM
Protocol: (§1) The human lung adenocarcinoma cell line A549 was cultured in DMEM medium supplemented with 10% fetal bovine serum (FBS), 100 U/mL penicillin and 100 μg/mL streptomycin. P-gp-expressing human colon adenocarcinoma cells HCT-15 were cultured in RPMI 1640 medium supplemented with 10% FBS, 100 U/mL penicillin and 100 μg/mL streptomycin. BCRP-expressing MCF-7/MX human breast adenocarcinoma cells were cultured in DMEM medium supplemented with 10% FBS, 100 U/mL penicillin and 100 μg/mL streptomycin. MRP1-expressing H69AR human small cell lung cancer cells were cultured in RPMI 1640 medium (ATCC modification) supplemented with 20% FBS, 100 U/mL penicillin and 100 μg/mL streptomycin. All cancer cell lines employed have been systematically characterized regarding their respective ABC transporter expression profile ([Sachs et al., 2019]).
(§2) Cytotoxic activity of test compounds was analyzed after 48 h using the CellTiter-Glo Luminescent Cell Viability Assay published previously ([Weber et al., 2017]) in 384-well plates with the following cell densities: A549, MCF-7/MX: 2 × 10^3 cells/well; HCT-15: 3 × 10^3 cells/well; H69AR: 5 × 10^3 cells/well. Pipetting was conducted with the CyBi-Well 96-channel simultaneous pipettor (Analytik Jena AG, Jena, Germany). For generation of dose-response curves and calculation of IC50 values, the four-parameter logistic model was applied.

HCT-15 cells = assay: CellTiter-Glo cell viability assay (cytotoxicity), HCT-15; assay type: cell-based; details: Homo sapiens, 48 h, P-gp expressing, mean ± SEM
Protocol: as §1, §2

MCF-7/MX cells = assay: CellTiter-Glo cell viability assay (cytotoxicity), MCF-7/MX; assay type: cell-based; details: Homo sapiens, MCF7/MX; 48 h, BCRP-expressing, mean ± SEM
Protocol: as §1, §2

H69AR cells = assay: CellTiter-Glo cell viability assay (cytotoxicity), H69AR; assay type: cell-based; details: Homo sapiens, 48 h, MRP1-expressing, mean ± SEM
Protocol: as §1, §2

Pdr5 = biological target: T1, Pdr5 (Saccharomyces cerevisiae, UniProt P33302); assay: Pdr5 transport assay (R6G) in plasma membrane preparations; assay type: biochemical; design: R6G transport activity of Pdr5 WT inhibited to (initial screen): dose or concentration left out as unconfirmed; details: for R6G transport activity of Pdr5 WT inhibited to (initial screen): relative to Pdr5 WT without compound
T1 construct: effect on (A) the transport activity of Pdr5 WT and (B) their effect on the ATPase activity; made in house; host or cells: S. cerevisiae YRE1001 (pdr1-3 background), isolated plasma membranes
Protocol: Saccharomyces cerevisiae cells expressing Pdr5 WT or the E1036Q (EQ) mutant were cultured to an OD600 of 1.5 in YPD-media at 25°C. The nitrogen source was replenished by addition of a 10th volume of 5x YP (50 g/l yeast extract, 100 g/l peptone). The cells were grown to an OD of 3.5 and harvested (5000 ×g at 4°C for 15 min). The isolation of Pdr5 containing PMs was performed as described ([Kolaczkowski et al., 1996]; [Ernst et al., 2008]).
Active transport of R6G was measured according to the protocol developed by [Kolaczkowski et al. (1996)], using a Tecan Infinite 200 pro reader (Tecan Group AG, Männedorf, Switzerland). 6 μg of the isolated PM containing Pdr5 were resuspended in 200 μl of the transport buffer (50 mM HEPES, pH 7.0, 5 mM MgCl2, 10 mM NaN3, and 150 nM R6G) and incubated in a black 96-well plate at 30°C. 5 μl of the test compound were added at the indicated concentrations. Active transport was initiated by the addition of 10 μl 200 mM ATP and fluorescence intensity was recorded in 15 s-intervals for 20 min (excitation wavelength at 524 nm, emission wavelength at 558 nm, number of flashes 30, integration time 2000 μs). IC50 determination was performed with a serial dilution of the test compounds.

BCRP = biological target: T2, BCRP (Homo sapiens, UniProt Q9UNQ0); assay: BCRP transport assay (Hoechst 33342) in MCF-7/MX cells; assay type: cell-based
T2 construct: endogenous in cells; host or cells: MCF-7/MX human breast adenocarcinoma cells (mitoxantrone-selected)
T2 sequence (Q9UNQ0 1-655): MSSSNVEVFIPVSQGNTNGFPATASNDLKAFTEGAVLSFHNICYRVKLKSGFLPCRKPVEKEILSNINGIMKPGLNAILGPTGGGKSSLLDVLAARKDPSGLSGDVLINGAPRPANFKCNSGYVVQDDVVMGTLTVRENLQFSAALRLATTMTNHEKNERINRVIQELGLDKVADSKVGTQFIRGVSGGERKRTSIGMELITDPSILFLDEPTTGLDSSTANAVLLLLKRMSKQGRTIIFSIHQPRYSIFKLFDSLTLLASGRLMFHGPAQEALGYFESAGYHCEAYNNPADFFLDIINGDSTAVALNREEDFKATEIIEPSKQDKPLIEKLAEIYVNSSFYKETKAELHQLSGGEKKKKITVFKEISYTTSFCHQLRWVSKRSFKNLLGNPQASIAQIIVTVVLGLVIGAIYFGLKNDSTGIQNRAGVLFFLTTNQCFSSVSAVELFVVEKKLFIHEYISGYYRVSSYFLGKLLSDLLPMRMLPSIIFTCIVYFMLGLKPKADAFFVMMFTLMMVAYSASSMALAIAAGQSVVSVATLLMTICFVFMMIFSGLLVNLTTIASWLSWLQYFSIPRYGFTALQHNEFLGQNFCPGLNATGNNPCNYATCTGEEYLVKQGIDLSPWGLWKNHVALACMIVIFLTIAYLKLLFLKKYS
Protocol: Breast cancer resistance protein transport activity was determined in the BCRP-expressing MCF-7/MX cell line. Hoechst 33342 was applied as transporter substrate and 1 μM Ko143 as positive control or 0.5% DMSO as negative control and the assay was performed according to the P-gp assay. Fluorescence was measured at an excitation wavelength of 355 nm and emission wavelength of 460 nm. The transport activity of BCRP was analyzed by determining the plateau of the fluorescence-time curve by using non-linear regression (one-phase exponential fit). Normalization of the data to Ko143 (100% inhibition) and DMSO (0% inhibition) was performed.

T1 sequence (P33302 whole entry): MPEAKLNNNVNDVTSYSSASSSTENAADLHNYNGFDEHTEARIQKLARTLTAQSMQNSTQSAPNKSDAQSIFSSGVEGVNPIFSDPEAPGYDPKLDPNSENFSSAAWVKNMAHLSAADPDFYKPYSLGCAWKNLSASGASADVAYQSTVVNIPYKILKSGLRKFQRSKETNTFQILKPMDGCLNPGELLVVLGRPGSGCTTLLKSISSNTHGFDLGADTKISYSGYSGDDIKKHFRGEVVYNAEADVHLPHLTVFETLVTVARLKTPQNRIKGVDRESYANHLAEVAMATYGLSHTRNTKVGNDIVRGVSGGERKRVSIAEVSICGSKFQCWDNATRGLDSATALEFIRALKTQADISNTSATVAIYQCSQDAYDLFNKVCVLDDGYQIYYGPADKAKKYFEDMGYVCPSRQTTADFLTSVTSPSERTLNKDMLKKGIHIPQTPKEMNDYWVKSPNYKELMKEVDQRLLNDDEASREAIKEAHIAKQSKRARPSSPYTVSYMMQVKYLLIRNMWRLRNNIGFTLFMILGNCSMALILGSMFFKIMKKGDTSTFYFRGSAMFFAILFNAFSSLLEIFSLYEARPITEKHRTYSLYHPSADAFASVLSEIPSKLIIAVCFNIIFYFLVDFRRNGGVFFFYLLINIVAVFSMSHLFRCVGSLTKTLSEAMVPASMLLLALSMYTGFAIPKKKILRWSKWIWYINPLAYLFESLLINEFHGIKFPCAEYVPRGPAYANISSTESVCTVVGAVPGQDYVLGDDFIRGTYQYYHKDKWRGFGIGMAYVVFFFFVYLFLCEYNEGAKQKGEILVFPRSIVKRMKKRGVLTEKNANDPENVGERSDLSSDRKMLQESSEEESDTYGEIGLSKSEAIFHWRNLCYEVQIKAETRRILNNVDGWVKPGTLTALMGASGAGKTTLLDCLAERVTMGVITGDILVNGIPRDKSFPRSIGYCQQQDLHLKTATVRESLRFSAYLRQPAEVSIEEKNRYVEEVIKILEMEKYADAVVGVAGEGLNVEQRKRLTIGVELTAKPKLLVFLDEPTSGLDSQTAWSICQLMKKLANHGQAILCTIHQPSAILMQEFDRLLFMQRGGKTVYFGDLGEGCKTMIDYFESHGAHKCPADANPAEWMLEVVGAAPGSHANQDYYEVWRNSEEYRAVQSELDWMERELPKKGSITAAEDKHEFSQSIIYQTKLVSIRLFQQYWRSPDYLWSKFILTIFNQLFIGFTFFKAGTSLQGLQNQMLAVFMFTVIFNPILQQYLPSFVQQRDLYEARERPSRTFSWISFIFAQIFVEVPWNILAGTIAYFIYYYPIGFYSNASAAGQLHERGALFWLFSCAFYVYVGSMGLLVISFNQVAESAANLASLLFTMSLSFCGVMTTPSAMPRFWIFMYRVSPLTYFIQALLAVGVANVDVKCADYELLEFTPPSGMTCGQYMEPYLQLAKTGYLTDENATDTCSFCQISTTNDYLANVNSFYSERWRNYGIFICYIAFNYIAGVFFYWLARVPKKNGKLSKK

## COc1cc(O)c2c(c1)C[C@H](C)OC2=O [Angelicoin B (4), angelicoin B]
A549 cells
  IC50: > 100 µM
HCT-15 cells
  IC50: > 100 µM
MCF-7/MX cells
  IC50: > 100 µM
H69AR cells
  IC50: > 100 µM
Pdr5; listed as 4
  R6G transport activity of Pdr5 WT inhibited to (initial screen): no effect
Pdr5; listed as angelicoin B (4)
  R6G transport activity of Pdr5 WT inhibited to (initial screen): did not interfere with Pdr5-mediated R6G transport
BCRP
  Inhibition of BCRP (in words): no inhibitory activity could be observed

## COc1cc(O)c2c(c1)CCOC2=O [Compound 14]
A549 cells
  IC50: > 100 µM
HCT-15 cells
  IC50: > 100 µM
MCF-7/MX cells
  IC50: > 100 µM
H69AR cells
  IC50: > 100 µM
Pdr5
  R6G transport activity of Pdr5 WT inhibited to (initial screen): did not interfere with Pdr5-mediated R6G transport; also recorded: no effect
BCRP
  Inhibition of BCRP (in words): did not inhibit BCRP

## CCCCCC1Cc2cc(OC)cc(O)c2C(=O)O1 (centres unmarked) [Compound 16]
A549 cells
  IC50: 78.6 ± 2.2 µM
HCT-15 cells
  IC50: > 100 µM
MCF-7/MX cells
  IC50: > 100 µM
H69AR cells
  IC50: 88.5 ± 4.6 µM
Pdr5
  IC50: 15.1 ± 2.1 µM
  R6G transport activity of Pdr5 WT inhibited to (initial screen): inhibit the transport of R6G completely; also recorded: inhibit the transport activity of Pdr5 WT completely
BCRP; human, BCRP-expressing MCF-7/MX cells, probe Hoechst 33342, 10 μM, normalized to 1 μM Ko143 (100%) and DMSO (0%), read-out: Relative inhibition of BCRP
  inhibition at 3 h, 10 μM: 35.3 ± 3.4%
BCRP; human, BCRP-expressing MCF-7/MX cells, probe Hoechst 33342, 50 μM, normalized to 1 μM Ko143 (100%) and DMSO (0%), read-out: Relative inhibition of BCRP
  inhibition at 3 h, 50 μM: 89.1 ± 4.6%

## CCCCCC1Cc2cc(OC)cc(OC)c2C(=O)O1 (centres unmarked) [Compound 16a]
A549 cells; A549 cells
  fold lower IC50 value than compound 16: about 1.5 fold
A549 cells
  IC50: 53.6 ± 5.6 µM
HCT-15 cells
  IC50: > 100 µM
MCF-7/MX cells
  IC50: 10.6 ± 0.9 µM
H69AR cells
  IC50: > 100 µM
Pdr5
  IC50: 14.6 ± 3.9 µM
  R6G transport activity of Pdr5 WT inhibited to (initial screen): inhibit the transport of R6G completely; also recorded: inhibit the transport activity of Pdr5 WT completely
BCRP; human, BCRP-expressing MCF-7/MX cells, probe Hoechst 33342, different concentrations, normalized to Ko143, read-out: Relative inhibition of BCRP, span over the tested concentrations
  inhibition at 3 h: 2.3 to 14.9%
